From article PMC3462657 (Cancer letters, 2012)
“Also recorded” adds a separate entry of the source.

Tests used:
[1] = In vitro release from polymeric implants; type: in vitro ADME; conditions: for cumulative release over 3 weeks: 37°C
[2] = Tissue curcumin/curcuminoids levels by UPLC-fluorescence; type: in vivo, female A/J mice; conditions: for concentration at 21 days: female, A/J
[3] = system: DBP-induced lung DNA adducts; assay: Inhibition of DBP-DNA adducts in lung tissue, 32P-postlabeling; type: in vivo, female A/J mice; conditions: coated implants, DBP-treated mice, 3 weeks
[4] = system: human lung cancer A549 xenograft; assay: Effect on tumor xenograft
[5] = parameters: species or system mice; conditions: mouse, in vivo
[6] = coated implants, PBS + 10% bovine serum
[7] = implants of the individual curcuminoids, 21 days

Compound: COc1cc(/C=C/C(O)=C/C(=O)/C=C/c2ccc(O)cc2)ccc1O [curcumin II, demethoxycurcumin]
- cumulative release over 3 weeks [1, 6]: 41.8%
- concentration at 21 days ([2]; mouse, in vivo, level in brain): 1 ng/g
- concentration at 21 days ([2]; mouse, in vivo, level in lung): 1.4 ± 0.4 ng/g

Compound: Cc1c(-c2cnccn2)ssc1=S [oltipraz, reference compound]
- release in PBS alone ([1]; coated implants agitated in PBS alone at 37°C): essentially no release
- cumulative release ([1]; coated implants, PBS + 10% bovine serum, after 21 days): about 12%
- cumulative release ([1]; coated implants, PBS + 10% bovine serum, after 60 days): ~27%
- in vitro release pattern ([1]; coated implants, PBS + 10% bovine serum, over 60 days / eight weeks): almost zero-order kinetics
- effect on DBP-DNA adduct levels in lung [3]: reduction was statistically significant
- lung DNA adducts [3]: 28±7 adducts/10^9 nucleotides

Compound: CC1=C(CO)C(=O)O[C@@H]([C@@H](C)[C@H]2CC[C@H]3[C@@H]4C[C@H]5O[C@]56[C@@H](O)C=CC(=O)[C@]6(C)[C@H]4CC[C@]23C)C1 [withaferin A]
- total dose administered via the two implants ([4]; calculated based on the residual amount in the implants): 2.69 mg
- effect on A549 xenograft ([4]; given via the implants): significantly inhibited
- inhibition of the tumor ([4]; intraperitoneally 8 mg/kg, alternate days): 53%
- effect on tumor ([4]; intraperitoneally, lower dose 4 mg/kg (same total dose as implants), 4 mg/kg): ineffective; also recorded: no reduction
- body weight at the end of the 8-week study ([4]; via implants vs sham): essentially the same body weight
- reduction in the growth of the tumor (tumor volume) ([4]; via implants, two 1.5-cm, 5% load): 51%
- effect on DBP-DNA adduct levels in lung [3]: reduction in the DNA adduct levels
- effect on DBP-DNA adduct levels in lung ([3]; listed as Withaferin A): diminished DNA adducts, but it was insignificant

Compound: COc1cc(/C=C/C(=O)CC(=O)/C=C/c2ccc(O)c(OC)c2)ccc1O [curcumin I]
- level in lung ([2]; implants of the individual curcuminoids, 10% load, 21 days): 6.5 ± 1.6 ng/g lung
- level in brain [2, 7]: 1.4 ng/g tissue
- level in liver [2, 7]: 5–6 ng/g tissue

Compound: O=C(/C=C/c1ccc(O)cc1)CC(=O)/C=C/c1ccc(O)cc1 [curcumin III, bisdemethoxycurcumin]
- cumulative release over 3 weeks [1, 6]: 51.4%
- concentration at 21 days ([2]; mouse, in vivo, level in brain): 6.4 ng/g
- concentration at 21 days ([2]; mouse, in vivo, level in liver): 5 to 6 ng/g
- concentration at 21 days ([2]; mouse, in vivo, level in lung): 49.7 ± 1.3 ng/g

Compound: curcumin
- composition of the three curcuminoids in lung tissue ([2]; mouse, in vivo): essentially the same compositions
- ratio of the three curcuminoids in the liver ([2]; mouse, in vivo): 74:18:8
- biochemical parameters of kidney function [5]: No significant differences
- effect on body weight [5]: no significant effect
- hematological parameters (white blood cells, red blood cells, hemoglobin) [5]: No significant differences
- liver enzymes [5]: No significant differences
- neutrophils, lymphocytes, monocytes, eosinophils, and basophils [5]: no statistical difference
